Measured values as given in patent US20150224089A1, “COMBINATIONS OF IKKi/TBK1 INHIBITORS WITH BETA ADRENERGIC AGONISTS OR SYMPATHETIC NERVOUS SYSTEM ACTIVATORS” (THE REGENTS OF THE UNIVERSITY OF MICHIGAN, priority 2014, published 2015).

What was measured:
[1] = tested on: diet-induced obese mice; assay: Serum FFA and glycerol after CL-316,243 injection in ND- or HFD-fed mice; format: in vivo; conditions: amlexanox-treated HFD mice compared to vehicle-treated HFD-fed mice; oral gavage 4 days
Description: (§1) (A) Fold increase in serum FFA (left panel) and glycerol (right panel) levels 15 min after CL-316,243 injection in ND- or HFD-fed mice treated with amlexanox or vehicle control for 4 days. (B) Glycerol release from ex vivo epididymal (left panel) and inguinal (right panel) WATs after 1 hr pretreatment with amlexanox or vehicle. CL-316,243 treatment was started at time zero. (C) Immunoblots in inguinal WAT lysates from FIG. 5B after 60 min of CL-316,243 treatment. (D) cAMP levels in epididymal WAT 20 min after CL-316,243 (CL) or saline control injection in HFD-fed mice treated with amlexanox or vehicle control for 4 days. (E) Immunoblots in epididymal WAT 5 min after CL-316,243 or saline control injection in HFD-fed mice treated with amlexanox or vehicle control for 4 days. (F) Relative oxygen comsumption of mice in each treatment group.
To test the functional importance of the noncanonical IKKs in maintaining energy balance in vivo, experiments were conducted during development of embodiments of the present invention to investigate whether the administration of a selective inhibitor of IKKε and TBK1, amlexanox, can reverse diet-induced catecholamine resistance in rodentsMice were fed a high fat or normal diet, treated them with amlexanox by oral gavage for 4 days (prior to the point when weight loss is seen), and then gave a single intraperitoneal (IP) injection of the β3-adrenergic agonist CL-316,243. Injection of CL-316,243 stimulated a threefold increase in serum FFA and glycerol levels in both vehicle and amlexanox-treated mice on normal diet (ND).

[2] = tested on: white adipose tissues from mice on a HFD; assay: Glycerol release from ex vivo epididymal and inguinal white adipose tissue; conditions: ex vivo 1 hr pretreatment with amlexanox, CL-316,243 treatment, more pronounced in inguinal depot
Description: as §1, with “group. […]” for “group.”

[3] = tested on: epididymal WAT; assay: Immunoblots (HSL phosphorylation) in epididymal WAT after CL-316,243 injection in HFD-fed mice; format: in vivo; conditions: HFD-fed mice pretreated with amlexanox 4 days; 5 min after CL-316,243 IP injection
Description: as §1
To examine whether inhibition of TBK1 and IKKε with amlexanox reverses resistance to catecholamineinduced lipolysis in vivo by increasing stimulation of cAMP production, cAMP levels we measured in epididymal adipose tissue from mice on HFD after CL-316,243 IP injection. Levels of cAMP were increased after CL-316,243 IP injection in mice on HFD pretreated with amlexanox (FIG. 5D).

Question: With CC(C)c1ccc2oc3nc(N)c(C(=O)O)cc3c(=O)c2c1 [amlexanox, 2-amino-7-isopropyl-1-azaxanthone-3-carboxylic acid; 2-amino-7-isopropyl-5-oxo-5H-chromeno[2,3-b]pyridine-3-carboxylic acid] as the compound, how does the “fold increase in serum glycerol levels after CL-316,243” value [1] read?
Answer: Its value is “significantly higher”.

Question: And the “glycerol release from white adipose tissues” value [2]?
Answer: The value was “enhanced glycerol release”.

Question: And the “HSL phosphorylation in epididymal WAT” value [3]?
Answer: Its value is “increased”.
